This experiment deals with depression with gastro-intestinal over-growth with Aspergillus and Candida yeasts. Description: Antidepressive effectiveness (proband tests), multi-step method. It is filed as in vivo, human. More on the design: key: − negative; + positive. Conditions: Level 0 antidepressants (Seroxat); Level 1 1 g/day oral 4 weeks; Level 2 2 g daily oral 4 weeks after level 1. From the text:
Antidepressive effectiveness (2 proband tests/female 1/male 1)
Diseases such as depressions can often be treated in an exclusively symptomatic way with psychopharmaceuticals. However, mycoses/mycotoxins may be the initial cause of such diseases. The object was to eliminate the gastro-intestinal over-growth with Aspergillus and Candida yeasts using BHQ (see also Patent Application EP 00 124 497), and to apply BHQ R6 regenerative agent in a multi-step method.
Level 0: Depression conservatively treated with antidepressants (Seroxat®). The general state of health was subjectively reported as non-satisfactory; in part, depression attacks occurred at different times of day (e.g., in the evening), so that the dosage was increased. The microbiological detection of Candida spec. and Aspergillus spec. was positive. The probands complained about a high weight increase (“spongy feeling”).
Level 1: For 4 weeks, BHQ “flavor-containing medicament” was administered orally once a day for the decontamination of the mycosis and/or any mycotoxins present (1 g/day).
Level 2: As a next step after level 1, BHQ R6 regenerative agent (2 g daily) was administered orally for 4 weeks.

In the case of `Fc1ccc([C@@H]2CCNC[C@H]2COc2ccc3c(c2)OCO3)cc1` [Seroxat], the General health result is listed as “−”, the Weight increase entry is recorded as “+”, the “microbiological gastro-intestinal detection: Candida spec. Aspergillus spec.” value is “+” and the part. status result is “+”.

These data come from US20040076614A1, “Symbiotic regenerative agent” (priority 2001, published 2004).
